ChEMBL document CHEMBL4261613, “Discovery of a potent orally bioavailable retinoic acid receptor-related orphan receptor-gamma-t (RORγt) inhibitor, S18-000003” (Bioorg Med Chem Lett, 2018)
≈ marks a conversion by molar mass, not a printed value.

Columns and labels:
[1] = target: T1, Nuclear receptor ROR-gamma (Mus musculus) (UniProt P51450); assay: (§1) Transrepression of recombinant mouse GAL4-DBD fused RORgammat LBD expressed in HEK293 cells after 20 hrs by luciferase reporter gene assay; type: cell-based
T1 sequence (whole entry): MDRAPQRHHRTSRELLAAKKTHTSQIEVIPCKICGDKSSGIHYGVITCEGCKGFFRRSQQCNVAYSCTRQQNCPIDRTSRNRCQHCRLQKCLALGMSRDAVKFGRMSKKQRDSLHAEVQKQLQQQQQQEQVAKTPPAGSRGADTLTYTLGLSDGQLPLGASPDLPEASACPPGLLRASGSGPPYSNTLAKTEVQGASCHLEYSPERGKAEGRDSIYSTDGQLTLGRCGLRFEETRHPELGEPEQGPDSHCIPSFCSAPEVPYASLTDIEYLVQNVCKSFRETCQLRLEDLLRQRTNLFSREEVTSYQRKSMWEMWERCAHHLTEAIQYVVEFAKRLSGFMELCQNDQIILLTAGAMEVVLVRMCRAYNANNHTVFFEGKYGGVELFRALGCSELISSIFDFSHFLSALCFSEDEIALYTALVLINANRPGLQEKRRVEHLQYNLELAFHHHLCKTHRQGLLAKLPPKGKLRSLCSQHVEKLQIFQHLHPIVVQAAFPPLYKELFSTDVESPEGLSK

[2] = target: T2, Nuclear receptor ROR-gamma (Mus musculus, UniProt P51450); assay: as §1; type: cell-based
T2 sequence (P51450 whole entry): T1 sequence (whole entry)

[3] = target: T3, Nuclear receptor ROR-gamma (Homo sapiens) (UniProt P51449); assay: (§2) Transrepression of recombinant human GAL4-DBD fused RORgammat LBD expressed in HEK293 cells after 20 hrs by luciferase reporter gene assay; type: cell-based
T3 sequence (whole entry): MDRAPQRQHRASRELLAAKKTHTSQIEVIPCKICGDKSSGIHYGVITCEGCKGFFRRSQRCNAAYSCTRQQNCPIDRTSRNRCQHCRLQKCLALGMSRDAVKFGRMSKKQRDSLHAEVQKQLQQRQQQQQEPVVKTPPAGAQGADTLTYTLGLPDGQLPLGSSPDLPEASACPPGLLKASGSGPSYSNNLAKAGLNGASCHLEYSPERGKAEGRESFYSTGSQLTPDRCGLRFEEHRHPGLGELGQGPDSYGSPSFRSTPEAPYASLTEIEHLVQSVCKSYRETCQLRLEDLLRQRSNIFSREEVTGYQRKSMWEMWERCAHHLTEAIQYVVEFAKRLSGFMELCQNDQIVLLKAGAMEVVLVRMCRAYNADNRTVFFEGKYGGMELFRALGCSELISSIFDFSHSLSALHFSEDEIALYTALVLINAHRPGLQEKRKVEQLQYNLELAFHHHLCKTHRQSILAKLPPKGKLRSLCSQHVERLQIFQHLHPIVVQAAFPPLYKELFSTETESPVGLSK

[4] = target: T4, Nuclear receptor ROR-gamma (Homo sapiens, UniProt P51449); assay: as §2; type: cell-based
T4 sequence (P51449 whole entry): T3 sequence (whole entry)

[5] = Stability in human liver microsomes assessed as parent compound remaining after 2 hrs by LC-MS/MS analysis; type: ADME, microsome; conditions: read-out: Stability
[6] = Stability in rat liver microsomes assessed as parent compound remaining after 2 hrs by LC-MS/MS analysis; type: ADME, microsome; conditions: read-out: Stability
[7] = target: T2, Nuclear receptor ROR-gamma; assay: Transrepression of RORgammat in anti-CD3/CD28 stimulated C57BL/6 mouse CD4-positive T cells assessed as suppression of T cell differentiation to Th17 cells by measuring reduction in IL-17A level after 4 days by ELISA
[8] = target: T4, Nuclear receptor ROR-gamma; assay: Displacement of [3H]-Digoxin from recombinant human GST-fused RORgammat LBD after 1 to 4 hrs by scintillation counting method
[9] = Solubility of the compound in KH2PO4/Na2HPO4 buffer at pH 6.8 by shake-flask method; type: physicochemical
[10] = Solubility of the compound in NaCl/HCl buffer at pH 1.2 by shake-flask method; type: physicochemical

Efficacy [1] [%] | IC50 [2] [nM] | Efficacy [3] [%] | IC50 [4] [nM] | remaining at 2 h [5] [%] | remaining at 2 h [6] [%] | IC50 [7] [nM] | IC50 [8] [nM] | solubility thermodynamic [9] [µM] | solubility thermodynamic [10] [µM] | SMILES
57 | 6800 | 93 | 140 | 24 | 6 |  |  |  |  | CCS(=O)(=O)c1ccc(CC(=O)Nc2ccc(C(C)(C)C(=O)Nc3ccccc3C)cc2)cc1
73 | 1800 | 91 | 95 | 97 | 73 | 1300 |  |  |  | CCS(=O)(=O)c1ccc(CC(=O)Nc2ccc(C(C)(C)C(=O)Nc3ccc(F)cc3F)cc2)cc1
50 | > 10000 | 91 | 430 |  |  |  | 36 |  |  | CCS(=O)(=O)c1ccc(CC(=O)Nc2ccc(C(C)(C)C(=O)N3CCCCC3)cc2)cc1
63 | 4500 | 93 | 150 |  |  |  |  |  |  | CCS(=O)(=O)c1ccc(CC(=O)Nc2ccc(C(C)(C)C(=O)Nc3cccnc3)cc2)cc1
73 | 1300 | 93 | 40 | 60 | 36 |  |  | > 50 | > 50 | CCS(=O)(=O)c1ccc(CC(=O)Nc2ccc(C(C)(C)C(=O)Nc3ccccn3)cc2)cc1
86 | 320 | 94 | 31 | 69 | 47 |  |  | > 50 | > 50 | CCS(=O)(=O)c1ccc(CC(=O)Nc2ccc(C(C)(C)C(=O)Nc3cc(F)ccn3)cc2)cc1
84 | 260 | 94 | 9.8 | 2.7 | 24 | 290 |  |  |  | CCS(=O)(=O)c1ccc(CC(=O)Nc2ccc(C(C)(C)C(=O)Nc3cccc(F)c3)cc2)cc1
47 | > 10000 | 87 | 1800 | 4.3 | 25 |  |  | > 50 | > 50 | CCS(=O)(=O)c1ccc(CC(=O)Nc2ccc(C(C)(C)C(=O)Nc3ccncc3)cc2)cc1
37 | > 10000 | 92 | 310 | 93 | 80 |  |  | > 50 | > 50 | CCS(=O)(=O)c1ccc(CC(=O)Nc2ccc(C(C)(C)C(=O)Nc3ncccc3F)cc2)cc1
55 | 10000 | 89 | 470 |  |  |  | 33 |  |  | CCS(=O)(=O)c1ccc(CC(=O)Nc2ccc(C(C)(C)C(=O)N3CC4(CCC4)C3)cc2)cc1
94 | 78 | 94 | 25 | 36 | 23 |  |  | 0.5 (≈ 0.267 µg/mL) | 26 (≈ 13.9 µg/mL) | CCS(=O)(=O)c1ccc(CC(=O)Nc2ccc(C(C)(C)C(=O)Nc3cc(C(F)(F)F)ccn3)cc2)cc1
77 | 3100 | 93 | 400 |  |  |  | 64 |  |  | CCOC(=O)C(C)(C)c1ccc(NC(=O)Cc2ccc(S(=O)(=O)CC)cc2)cc1
69 | 470 | 93 | 14 | 8.5 | 30 | 480 | < 30 | 26.6 (≈ 12.4 µg/mL) | 46.9 (≈ 21.8 µg/mL) | CCS(=O)(=O)c1ccc(CC(=O)Nc2ccc(C(C)(C)C(=O)Nc3ccccc3)cc2)cc1
86 | 100 | 95 | 8.2 | 40 | 8.1 |  |  | 4.7 (≈ 2.35 µg/mL) | > 50 | CCS(=O)(=O)c1ccc(CC(=O)Nc2ccc(C(C)(C)C(=O)Nc3cc(Cl)ccn3)cc2)cc1
66 | 5400 | 90 | 500 | 74 | 71 |  |  | 0.6 (≈ 0.32 µg/mL) | 1.1 (≈ 0.587 µg/mL) | CCS(=O)(=O)c1ccc(CC(=O)Nc2ccc(C(C)(C)C(=O)Nc3cccc(C(F)(F)F)n3)cc2)cc1
84 | 1900 | 92 | 260 |  |  |  | < 30 |  |  | CCS(=O)(=O)c1ccc(CC(=O)Nc2ccc(C(C)(C)C(=O)N3Cc4ccccc4C3)cc2)cc1
87 | 110 | 93 | 10 |  |  |  | < 30 |  |  | CCS(=O)(=O)c1ccc(CC(=O)Nc2ccc(C(C)(C)C(=O)N3CCc4ccccc43)cc2)cc1
91 | 290 | 97 | 40 | 92 | 72 |  |  | 25 (≈ 12.3 µg/mL) | 47 (≈ 23.1 µg/mL) | CCS(=O)(=O)c1ccc(CC(=O)Nc2ccc(C(C)(C)C(=O)Nc3cc(C#N)ccn3)cc2)cc1
52 | > 10000 | 90 | 180 |  |  |  | < 30 |  |  | CCS(=O)(=O)c1ccc(CC(=O)Nc2ccc(C(C)(C)C(=O)N3CCC3)cc2)cc1
76 | 100 | 93 | 4.4 | 67 | 19 | 100 |  |  |  | CCS(=O)(=O)c1ccc(CC(=O)Nc2ccc(C(C)(C)C(=O)Nc3ccccc3F)cc2)cc1
76 | 330 | 93 | 14 |  |  |  | < 30 |  |  | CCS(=O)(=O)c1ccc(CC(=O)Nc2ccc(C(C)(C)C(=O)N(C)c3ccccc3)cc2)cc1
51 | > 10000 | 89 | 370 |  |  |  | 30 |  |  | CCS(=O)(=O)c1ccc(CC(=O)Nc2ccc(C(C)(C)C(=O)N(C)C)cc2)cc1
